Among the test systems are NCI-H522 lung; BT-549 breast; EKVX NSCLC; A549 NSCLC; SW-620 colon; SF-539 CNS; MALME-3M melanoma; OVCAR-3 ovarian; HL-60(TB) leukemia; HCC-2998 colon; UACC-257 melanoma; MOLT-4 leukemia; HCT-15 colon; A498 renal; MDA-MB-231 breast; U251 CNS; RPMI-8226 leukemia.
What all share (assay): growth of human tumour cells (NCI), 48 h

The source of these data is PubChem BioAssay (NCI).

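How tested: cells in 96-well plates exposed to compound for 48 hours at five concentrations. TGI is the concentration that stops growth completely.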 Some results are limits rather than exact numbers.

In the case of `CCOc1cc(NC(C)=O)ccc1C(=O)NN1C(=O)/C(=C/c2cc(OC)c(OC)c(OC)c2)N=C1c1ccccc1`, the TGI in the test on NCI-H522 lung was greater than 100 µM; with BT-549 breast, 69.2 µM; in the test on EKVX NSCLC, greater than 100 µM; in the test on A549 NSCLC, greater than 100 µM; in the test with SW-620 colon it was greater than 100 µM; in the test with SF-539 CNS, greater than 100 µM. In addition, the TGI in the test with MALME-3M melanoma, in the test with OVCAR-3 ovarian, with HL-60(TB) leukemia, in the test with HCC-2998 colon, in the test with UACC-257 melanoma and with MOLT-4 leukemia was greater than 100 µM throughout. For the same compound, the TGI in the test with HCT-15 colon and with A498 renal was greater than 100 µM each time.
Turning to `CC(C)=CCC/C(C)=C/CC/C(C)=C/CC/C(C)=C/CC/C(C)=C\CC/C(C)=C/CC/C(C)=C/CC/C(C)=C/Cc1cc(O)ccc1O`, the TGI is 4.34 µM in the test with NCI-H522 lung; 5.81 µM in the test on BT-549 breast; 8.83 µM in the test on EKVX NSCLC; greater than 22.6 µM in the test on A549 NSCLC; greater than 100 µM in the test with SW-620 colon; 3.19 µM in the test on SF-539 CNS. For the same compound, the TGI was 1.94 µM with OVCAR-3 ovarian; greater than 48.8 µM with HCC-2998 colon; greater than 55.2 µM in the test on MDA-MB-231 breast; 2.91 µM in the test on UACC-257 melanoma; 8.34 µM in the test with MOLT-4 leukemia; greater than 33.4 µM with HCT-15 colon. In addition, the TGI in the test with A498 renal is 3.51 µM; in the test on U251 CNS it was 4.06 µM.
On to `COc1cc(COC(=O)N2CCC2C(=O)O)c([N+](=O)[O-])cc1OC` (stereo not given), for which the TGI with BT-549 breast, in the test on EKVX NSCLC, with A549 NSCLC, in the test with SW-620 colon, in the test on SF-539 CNS and in the test on MALME-3M melanoma was greater than 100 µM in each case. Moreover, the TGI in the test with RPMI-8226 leukemia, in the test on OVCAR-3 ovarian, with HL-60(TB) leukemia, in the test on HCC-2998 colon, in the test with UACC-257 melanoma and with MOLT-4 leukemia was greater than 100 µM each time. For the same compound, the TGI with HCT-15 colon, in the test on A498 renal and with U251 CNS was greater than 100 µM each time.
Turning to `COc1cc2c(cc1OC)CC(N=[N+]=[N-])c1cc(OC)c(OC)cc1/C=C\2` (stereo not given), the TGI is greater than 100 µM in the test on NCI-H522 lung; 38.8 µM in the test on BT-549 breast; greater than 100 µM in the test with EKVX NSCLC; greater than 100 µM in the test with A549 NSCLC; greater than 100 µM in the test with SW-620 colon; greater than 100 µM in the test with SF-539 CNS. Besides, the TGI in the test on RPMI-8226 leukemia, in the test with OVCAR-3 ovarian, in the test on HL-60(TB) leukemia, in the test on HCC-2998 colon, in the test with MDA-MB-231 breast and in the test on UACC-257 melanoma was greater than 100 µM each time. For the same compound, the TGI in the test on MOLT-4 leukemia, in the test on HCT-15 colon, with A498 renal and with U251 CNS was greater than 100 µM in each case.
Turning to `COc1ccc2c(c1)c1c(n2CCN2CCCCC2)-c2ccccc2CC1`, the TGI in the test with NCI-H522 lung was determined as 21.8 µM; in the test on BT-549 breast it was 41.5 µM; in the test with EKVX NSCLC, 36.7 µM; with A549 NSCLC, 36.6 µM; in the test on SW-620 colon it was 37.8 µM; with SF-539 CNS, 27.4 µM. The TGI in the test on MALME-3M melanoma stood at 28.3 µM; in the test with RPMI-8226 leukemia, 56.1 µM; with OVCAR-3 ovarian it was 33.8 µM; with HCC-2998 colon, 20.7 µM; in the test on MDA-MB-231 breast, 31.8 µM; in the test on UACC-257 melanoma, 32.1 µM. The TGI in the test with MOLT-4 leukemia is 40.7 µM; in the test with HCT-15 colon, 24.5 µM; in the test on U251 CNS, 30.5 µM.
Take `CCC(=O)O[C@H]1CC[C@H]2[C@@H]3CCC4=C/C(=N/NC(=O)c5cccc6c(=O)c7ccccc7[nH]c56)CC[C@]4(C)[C@H]3CC[C@]12C`: the TGI in the test with NCI-H522 lung, with BT-549 breast, in the test with EKVX NSCLC, with A549 NSCLC, in the test on SW-620 colon and in the test with SF-539 CNS was greater than 25 µM throughout. Further, the TGI with RPMI-8226 leukemia, with OVCAR-3 ovarian, in the test with HCC-2998 colon, in the test on MDA-MB-231 breast, in the test with UACC-257 melanoma and with MOLT-4 leukemia was greater than 25 µM in each case. For the same compound, the TGI in the test with HCT-15 colon, with A498 renal and in the test with U251 CNS was greater than 25 µM throughout.
As to `COC(=O)CCC12CCC(O1)c1ccccc12` (stereo not given), the TGI in the test with NCI-H522 lung, with BT-549 breast, in the test with EKVX NSCLC, in the test on A549 NSCLC, in the test on SW-620 colon and in the test on SF-539 CNS was greater than 100 µM each time. Besides, the TGI in the test with RPMI-8226 leukemia, with HL-60(TB) leukemia, with HCC-2998 colon, in the test with MDA-MB-231 breast, in the test on UACC-257 melanoma and with MOLT-4 leukemia was greater than 100 µM in each case. The TGI with HCT-15 colon, in the test on A498 renal and in the test on U251 CNS was greater than 100 µM throughout.
On to `Cc1cccc(NC(=S)N=Nc2c(O)[nH]c3ccccc23)c1`, for which the TGI with NCI-H522 lung, in the test with EKVX NSCLC, in the test with A549 NSCLC, with SW-620 colon, in the test with SF-539 CNS and in the test on MALME-3M melanoma was greater than 100 µM each time. Further, the TGI in the test on RPMI-8226 leukemia, with OVCAR-3 ovarian, in the test on HL-60(TB) leukemia, with HCC-2998 colon, in the test on MDA-MB-231 breast and in the test with UACC-257 melanoma was greater than 100 µM in each case. Also, the TGI is greater than 100 µM in the test on MOLT-4 leukemia, greater than 100 µM in the test on HCT-15 colon, 98.1 µM in the test with A498 renal and greater than 100 µM in the test on U251 CNS.
With `COc1cc2c(c(OC)c1OC)-c1ccc(SC)cc1[C@H](OC(=O)c1ccccc1)CC2`, the TGI in the test with BT-549 breast was greater than 100 µM; with EKVX NSCLC it was greater than 100 µM; with SW-620 colon, greater than 100 µM; with SF-539 CNS it was 0.0841 µM; with OVCAR-3 ovarian it was greater than 100 µM; in the test with HL-60(TB) leukemia it was 0.487 µM. Besides, the TGI is 11.7 µM with HCC-2998 colon, greater than 100 µM in the test with UACC-257 melanoma, greater than 100 µM with MOLT-4 leukemia and greater than 40.6 µM with HCT-15 colon.
